Measurements reported in US12533357B2, “Treatment for acute myeloid leukemia or myelodysplastic syndrome” (UNIVERSITY HEALTH NETWORK, priority 2019, dated 2026).

Tests used:
[1] = Phase 1 dose-escalation study (NCT03187288); format: in vivo, human
Description: This study (NCT number: NCT03187288) is a multi-center, phase 1, dose-escalation trial designed to assess the safety, tolerability, pharmacokinetics, and clinical benefit of treatment with Compound (I) fumarate administered orally over a range of doses in patients with acute myeloid leukemia (AML) or myelodysplastic syndrome (MDS) that is relapsed or refractory to current treatment or for which no curative therapy exists.
Results: 9 patients with relapsed or refractory AML were treated with escalating doses of Compound (I) (64 mg to 128 mg) administered orally once daily. Among them, 3 patients were dosed at 64 mg, 4 patients were dosed at 96 mg, and 2 patients were dosed at 128 mg. Of six patients evaluable for response, two (33%) achieved complete remission (CR), and 3 patients (50%) had stable disease (with one patient having a 78% reduction in marrow blast count). The dose limiting toxicity (DLT) was determined to be colitis at the 128 mg dose level. […] However, only 4 patients were enrolled at the 96 mg dose level before the study was paused for enrollment and was amended.

[2] = test system: MV4-11 acute myeloid leukemia xenograft; assay: MV4-11 xenograft tumor growth in SCID mice; format: in vivo; settings: for tumor response by day 10: fumarate
Description: The human acute myeloid leukemia cell line MV4-11 was acquired from American Type Culture Collection (Manassas, VA, USA) and grown in RPMI medium containing 100 units/mL penicillin G sodium, 100 μg/mL streptomycin sulfate. The media was supplemented with 10% heat-inactivated fetal bovine serum, 2 mM L-glutamine, and 0.11% sodium pyruvate. The tumor cells were maintained in a humidified environment of 5% CO2 and 95% air at 37° C. Cells were verified to be free of mouse pathogens by IMPACT IV PCR analysis (IDEXX RADIL, Colombia, MO, USA) before injection.
Female SCID mice were purchased from the Ontario Cancer Institute and received and acclimated at the MaRS-TMDT Animal Resources Centre for 2 weeks prior to the start of the experiment. The mice were fed ad libitum autoclaved water and Rodent Lab Diet (Harlan Teklad LM-485) consisting of 19% crude protein, 5% crude fat, and 5% crude fiber. Mice were housed in microisolator cages and maintained in an environment with a 12-hour light cycle at 20-22° C. and 40-60% humidity. On the day of implantation, MV4-11 cells were harvested and resuspended with serum free DMEM to a concentration of 1×10^8/mL and each mouse was injected subcutaneously with a volume of 0.1 mL containing 1×10^7 MV4-11 cells in the right rear flank.
Animals were dosed Compound (I) via oral gavage in a volume of 10 ml/kg. The animals were dosed with a 2.25 mm×50 mm curved gavage needle affixed to a 1 ml syringe. Vincristine was dosed by IP injection once per week.
Toxicity was evaluated by body weight measurements and clinical observations. The mice were observed daily for overt signs of any adverse, treatment related side effects, and clinical signs of toxicity. Acceptable toxicity was set at a group mean body weight loss of less than 20% during the study and not more than one treatment related death in a group. Animals were monitored for body weights and tumor growth where tumor volumes were calculated using the formula: tumor volume=width^2×length/2.
The study evaluated Compound (I) fumarate administered by oral gavage, either daily at 7.5 mg/kg or 2 days on/5 days off at 13.5 mg/kg, in comparison to the standard-of-care agent vincristine, dosed in 4 weekly intraperitoneal injections of 0.5 mg/kg, in the MV4-11 acute myeloid leukemia xenograft model in SCID (severe combined immunodeficiency) mice. Xenografts were established by subcutaneously injecting 1×10^7 tumor cells into the right flank of female SCID mice. Treatment was initiated 14 days following implantation when tumor volumes reached a mean volume of approximately 90 mm^3. […] Animals were dosed in the 2-on/5-off schedule for 21 days. […] By day 13, the average volume of the control tumors was 878 mm^3, averaging […] tumor growth over the 13 days. On day 13 the average tumor growth inhibition in the vincristine treated arm was 85% (p=0.14).

MOLT-4 = assay: In vitro cytotoxicity (IC50) assay, alamarBlue; format: cell-based, human; settings: MOLT-4, T-ALL
Description: (§1) Cells were seeded in triplicate at 10,000 per 80 uL, into 96-well plates 24 hours before compound overlay and cultured at 37° C. and 5% CO2. Compound (I) was prepared as a 10 mM stock in 100% DMSO and diluted with RPMI 1640 cell growth medium containing 10% FBS such that the final concentrations ranged from 50 pM to 15 uM. Aliquots (20 uL) from each concentration were overlaid to 80 uL of pre-seeded cells to achieve final concentrations of 10 pM to 3 uM. After 3 days, cell viability in each well was assessed by alamarBlue assay according to the manufacturer's instruction (ThermoFisher Scientific). Absorbance was read at 570 nm using a SpectraPlus microplate reader (Molecular Devices Corporation). alamarBlue absorbance values were adjusted by subtracting the average of the baseline readings from untreated cells assessed one day after cell seeding. The percentage (%) of relative inhibition of cell viability was calculated by comparing to DMSO-treated cells. IC50s were calculated using GraphPad PRISM software (GraphPad Software Inc.).

MV4-11 = assay: In vitro cytotoxicity (IC50) assay, alamarBlue; format: cell-based, human; settings: MV4-11, AML M5
Description: as §1

cancer cells = assay: Compound (I) treatment of cancer cells (FIG. 1); format: cell-based
Description: as §1

OCI-LY3 = assay: In vitro cytotoxicity (IC50) assay, alamarBlue; format: cell-based; settings: OCI-LY3, NHL ABC-DLCBL
Description: as §1

OCI-LY8 = assay: In vitro cytotoxicity (IC50) assay, alamarBlue; format: cell-based; settings: OCI-LY8, NHL GCB-DLBCL
Description: as §1

TF-1 = assay: In vitro cytotoxicity (IC50) assay, alamarBlue; format: cell-based; settings: TF-1, AML M6
Description: as §1

KOPN-8 = assay: In vitro cytotoxicity (IC50) assay, alamarBlue; format: cell-based; settings: KOPN-8, B-ALL
Description: as §1

[3] = test system: complex karyotype (CK) AML cell lines; assay: In vitro combination with standard of care agents; format: cell-based; settings: in combination with Venetoclax (Bcl2 inhibitor) and 5-Azacytidine; multiple CK AML cell lines in vitro
[4] = Homo sapiens, 72 h, 3 days, read-out: Compound (I) IC50

In the case of `COc1ccc2c(c1)[C@]1(C[C@H]1c1ccc3c(/C=C/c4ccc(CN5C[C@@H](C)O[C@@H](C)C5)cc4)n[nH]c3c1)C(=O)N2` [Compound (I), (1R,2S)-2-(3-((E)-4-(((2S,6R)-2,6-dimethylmorpholino)methyl)styryl)-1H-indazol-6-yl)-5′-methoxyspiro[cyclopropane-1,3′-indolin]-2′-one], the “dose limiting toxicity (DLT)” value ([1]; 128 mg dose level, orally once daily) is reported as “colitis”, the “patients with stable disease” value ([1]; 3 of six evaluable patients, 64 mg to 128 mg orally once daily) is reported as 50% and the “effect on outcome of a patient” value ([1]; a patient with CK AML) is reported as “positively affected the outcome”. The “reduction in marrow blast count” value ([1]; one patient with stable disease) was 78%, the “single agent clinical activity” value ([1]; patients with poor risk AML) was “has activity” and the “patients achieving complete remission (CR)” value ([1]; two of six evaluable patients, 64 mg to 128 mg orally once daily) was 33%. The “animals remained tumor-free until” value ([2]; 2 days-on/5 days-off arm, 13.5 mg/kg) was 24 days, the “overall efficacy in MV4-11 xenograft model” value ([2]; SCID mice) was “very efficacious and potentially curative” and the “animals remained tumor-free until” value ([2]; daily dosing arm, 7.5 mg/kg) was 74 days. The “animals tumor free until last measurement time point” value ([2]; daily dosing arm, Day 128) was “Four of 6”, the “tumor response by day 10” value ([2]; oral 13.5 mg/kg 2-on/5-off) was “completely regressed tumors” and the “tumor response by day 10” value ([2]; oral daily 7.5 mg/kg) was “completely regressed tumors”. The “toxicity: reason daily dosing was halted” value ([2]; oral daily 7.5 mg/kg, halted after 14 days) was “excessive body weight loss”, the IC50 (MOLT-4; [4]) was 4.1 nM and the “Response to Compound (I)” value (MOLT-4) was “death”. The IC50 (MV4-11; [4]) was 5.7 nM, the “Response to Compound (I)” value (MV4-11) was “death” and the “effect of treatment on cancer cells” value (cancer cells) was “aberrant mitoses leading to death or arrest”. For the same compound, the “Response to Compound (I)” value (OCI-LY3) was “mitotic defects +”, the “Response to Compound (I)” value (OCI-LY8) was “mitotic defects +” and the IC50 (TF-1; [4]) was 2.2 nM. For the same compound, the “Response to Compound (I)” value (TF-1) was “death”, the IC50 (KOPN-8; [4]) was 0.7 nM and the “Response to Compound (I)” value (KOPN-8) was “death”. For the same compound, the combination activity [3] was “additive/synergistic activity”.
